Experimental findings from ChEMBL document CHEMBL4229435, “Synthesis and antimicrobial activity of β-carboline derivatives with N2-alkyl modifications” (2018) are described below.

In brackets after ≈: the same amount, converted by molar mass.

As a reminder, the MIC is the smallest concentration in the dilution series that meets the test's criterion for growth inhibition.

Common to all, as to type: functional
For one test, the system named is Pseudomonas aeruginosa. Put plainly: Antimicrobial activity against Pseudomonas aeruginosa GAI 12066 after 24 hrs by agar plate dilution method. As to conditions: GAI 12066, 24 h.
Test [1] deals with Staphylococcus aureus. Put plainly: Antimicrobial activity against methicillin-sensitive Staphylococcus aureus ATCC 25923 after 24 hrs by agar plate dilution method. As to conditions: ATCC 25923, 24 h.
A further test concerns Escherichia coli. Put plainly: Antimicrobial activity against Escherichia coli ATCC 25922 after 24 hrs by agar plate dilution method. As to conditions: ATCC 25922, 24 h.
Test [2] deals with Staphylococcus aureus. Put plainly: Antimicrobial activity against methicillin-resistant Staphylococcus aureus GAI 10151 after 24 hrs by agar plate dilution method. As to conditions: GAI 10151, 24 h.
Test [3] relates to Staphylococcus aureus. Put plainly: Antimicrobial activity against methicillin-resistant Staphylococcus aureus GAI 10152 after 24 hrs by agar plate dilution method. As to conditions: GAI 10152, 24 h.
The test system of a further test is Pichia kudriavzevii. Put plainly: Antimicrobial activity against Candida krusei ATCC 14243 after 24 hrs by agar plate dilution method. As to conditions: ATCC 14243, 24 h.
The subject of a further test is Acinetobacter baumannii. Put plainly: Antimicrobial activity against Acinetobacter baumannii GAI 07545 after 24 hrs by agar plate dilution method. As to conditions: GAI 07545, 24 h.
The next test relates to Candida albicans. Put plainly: Antimicrobial activity against Candida albicans GAI 05108 after 24 hrs by agar plate dilution method. As to conditions: GAI 05108, 24 h.
Test [4] relates to Staphylococcus aureus. Put plainly: Antimicrobial activity against methicillin-resistant Staphylococcus aureus GAI 10153 after 24 hrs by agar plate dilution method. As to conditions: GAI 10153, 24 h.
The next test relates to [Candida] intermedia. Put plainly: Antimicrobial activity against Candida intermedia GAI 15003 after 24 hrs by agar plate dilution method. As to conditions: Sungouiella intermedia, GAI 15003, 24 h.
For test [5], the system named is Staphylococcus aureus. Put plainly: Antimicrobial activity against methicillin-resistant Staphylococcus aureus GAI 11112 after 24 hrs by agar plate dilution method. As to conditions: GAI 11112, 24 h.

For `Clc1ccc2c(c1)c1cc[n+](Cc3ccccc3)cc1n2-n1c2ccc(Cl)cc2c2cc[n+](Cc3ccccc3)cc21`, the minimum inhibitory concentration (MIC) in the test on Pseudomonas aeruginosa was more than 1000 µM; against Staphylococcus aureus [1], 10 µM; against Escherichia coli it was 500 µM; against Staphylococcus aureus [2] it was 50 µM; with Staphylococcus aureus [3], 10 µM; in the test on Pichia kudriavzevii it was 500 µM. The minimal inhibitory concentration (MIC) was found to be 500 µM against Acinetobacter baumannii, 500 µM with Candida albicans, 10 µM with Staphylococcus aureus [4] and 10 µM in test [Candida] intermedia.

With `Clc1ccc2[nH]c3c[n+](Cc4ccccn4)ccc3c2c1`, the MIC in the test on Pseudomonas aeruginosa, with Staphylococcus aureus [1], in the test with Escherichia coli, against Staphylococcus aureus [2], in the test with Staphylococcus aureus [3] and against Pichia kudriavzevii was more than 1000 µM throughout. Moreover, the MIC with Acinetobacter baumannii was more than 1000 µM; in the test on Candida albicans, more than 1000 µM; in the test on Staphylococcus aureus [4], more than 1000 µM; in test [Candida] intermedia, 500 µM.

With `C[n+]1ccc2c(c1)[nH]c1ccccc12`, the MIC is more than 1000 µM against Staphylococcus aureus [1]; 1000 µM with Escherichia coli; 1000 µM in the test on Staphylococcus aureus [5]; 125 µM in the test with Pichia kudriavzevii; 500 µM against Candida albicans; 125 µM in test [Candida] intermedia.

On to `C[n+]1ccc2c3ccccc3n(-n3c4ccccc4c4cc[n+](C)cc43)c2c1`, for which the MIC against Staphylococcus aureus [1] stood at 125 µM; with Escherichia coli, 1000 µM; with Staphylococcus aureus [5], 125 µM; with Pichia kudriavzevii, 500 µM; against Candida albicans it was 500 µM; in [Candida] intermedia, 125 µM.

Consider `C[n+]1ccc2c3cc(Cl)ccc3n(-n3c4ccc(Cl)cc4c4cc[n+](C)cc43)c2c1`, for which the MIC in the test on Pseudomonas aeruginosa was more than 1000 µM; in the test on Staphylococcus aureus [1], 50 µM; in the test on Escherichia coli, 500 µM; in the test with Staphylococcus aureus [2], 500 µM; against Staphylococcus aureus [3], 50 µM; against Pichia kudriavzevii, 500 µM. The MIC is more than 1000 µM in the test on Acinetobacter baumannii, more than 1000 µM with Candida albicans, 50 µM against Staphylococcus aureus [4] and 50 µM in test [Candida] intermedia.

Take `C[n+]1ccc2c(c1)[nH]c1ccc(Cl)cc12` [NOSTOCARBOLINE]: the MIC against Pseudomonas aeruginosa is more than 1000 µM; against Staphylococcus aureus [1], more than 1000 µM; in the test on Escherichia coli, 500 µM; in the test with Staphylococcus aureus [2], more than 1000 µM; in the test with Staphylococcus aureus [3], more than 1000 µM; against Pichia kudriavzevii, 50 µM. Besides, the MIC (in the test with Acinetobacter baumannii; against Candida albicans; in the test on Staphylococcus aureus [4]; in test [Candida] intermedia) was more than 1000 µM in each case.

Regarding `Clc1ccc2[nH]c3c[n+](Cc4ccccc4)ccc3c2c1`, the minimum inhibitory concentration (MIC) was more than 1000 µM with Pseudomonas aeruginosa; more than 1000 µM with Staphylococcus aureus [1]; more than 1000 µM in the test on Escherichia coli; 500 µM against Staphylococcus aureus [2]; 500 µM in the test on Staphylococcus aureus [3]; 500 µM with Pichia kudriavzevii. Besides, the MIC was 500 µM against Acinetobacter baumannii, more than 1000 µM in the test with Candida albicans, 500 µM with Staphylococcus aureus [4] and 10 µM in test [Candida] intermedia.

For the molecule `Clc1ccc2c(c1)c1cc[n+](Cc3ccccn3)cc1n2-n1c2ccc(Cl)cc2c2cc[n+](Cc3ccccn3)cc21`, the MIC in the test with Pseudomonas aeruginosa, with Staphylococcus aureus [1], against Escherichia coli, with Staphylococcus aureus [2], in the test on Staphylococcus aureus [3] and against Pichia kudriavzevii was more than 1000 µM throughout. The MIC is more than 1000 µM in the test with Acinetobacter baumannii, more than 1000 µM against Candida albicans, more than 1000 µM against Staphylococcus aureus [4] and 500 µM in test [Candida] intermedia.

As to `c1ccc2c(c1)c1ccncc1n2-n1c2ccccc2c2ccncc21`, the MIC against Staphylococcus aureus [1] was more than 1000 µM; in the test with Escherichia coli, more than 1000 µM; against Staphylococcus aureus [5] it was more than 1000 µM; against Pichia kudriavzevii, more than 1000 µM; in the test on Candida albicans, more than 1000 µM; in test [Candida] intermedia, 125 µM (≈ 41.8 µg/mL).

As to `c1ccc2c(c1)[nH]c1cnccc12` [NORHARMANE], the MIC in the test with Staphylococcus aureus [1] is more than 1000 µM; in the test on Escherichia coli, 250 µM (≈ 42 µg/mL); against Staphylococcus aureus [5] it was 250 µM (≈ 42 µg/mL); in the test on Pichia kudriavzevii it was 125 µM (≈ 21 µg/mL); in the test on Candida albicans, 125 µM (≈ 21 µg/mL); in test [Candida] intermedia, 125 µM (≈ 21 µg/mL).
